The record followed here is patent US20120245184A1 (Aderans Research Institute, Inc., priority 2006, published 2012).

Counter-ions that a name gives are not always drawn.

Assay [1] concerns sonic hedgehog pathway. As to the kind of experiment: Hedgehog reporter assay (gli-luciferase) in TM3 cells. The assay is classed as cell-based, mouse. The following applies: read-out: TM3 Avg. EC50. From the text: (§1) Mouse (TM3: mouse Leydig cells; S12: mouse embryonic mesenchymal cells) and human (Daoy: human medulloblastoma cell; HepM: human embryonic palatal mesenchymal cell) cell lines are used to screen small molecules for their ability to modulate the activity of the sonic hedgehog pathway (Table 1, Table 2, and Table 3). Stable hedgehog pathway reporter cell lines are established by specific antibiotic selection following transfection of a reporter plasmid containing a luciferase gene located directly downstream from the gli promoter. Consequently, any observable changes in cellular luciferase activity may be attributed to changes in sonic hedgehog pathway activity in mouse and human cells, respectively, since gli is the major by-product of this pathway. To calculate activity, we generate an eleven point dose curve for each compound using 1:3 dilutions in 96 well assay plates. Each plate tested also contains low and high control to establish maximal pathway activation so to establish/compare a percentage activation of each tested compound (AMAX) on respective plates.
(§2) Stable hedgehog pathway reporter cell lines are established following specific antibiotic selection following transfection of a reporter plasmid
(§3) In short, typically cells are plated in MicroTiter-plates at 10,000-20,000 cells per well, in growth media (containing 10%-20% FBS). After 48-72 hrs (HGL and DGL respectively) the media in the assay plates is switched to low-serum containing media (0.5% FBS). At that time compounds are added (at 1-5 μM) to the assay plates, in the presence or absence of hedgehog protein (octyl-modified version; 1-5 ng/ml). After another 24 hrs of incubation, the media from the assay plates is discarded and replaced with luciferase assay-mix. Subsequently, plates are incubated at RT for ˜15-30 mins and then read in a luminometer. [note: addition of the Hedgehog protein, although not critical, will sensitize the assay allowing the identification of weak actives].

For assay [2], the system named is sonic hedgehog pathway. As to the kind of experiment: Human hedgehog reporter assay HEPM-GliLuc (HGL). Type of assay: cell-based. The following applies: read-out: HEPM Avg. EC50.
Source text: as §1, §2, §3

The subject of assay [3] is sonic hedgehog pathway. As to the kind of experiment: Human hedgehog reporter assay Daoy-GliLuc (DGL). Type of assay: cell-based. The following applies: Daoy human medulloblastoma cells, gli-luciferase reporter; read-out: Daoy Avg. EC50.
Source text: as §1, §2, §3

[4] abbreviates: TM3 mouse Leydig cells, gli-luciferase reporter.
Setting [5] is: HepM human embryonic palatal mesenchymal cells, gli-luciferase reporter.

As for `CNC1CCC(N(Cc2cc(-c3ccnc(C)c3)ccc2OC)C(=O)c2sc3ccccc3c2Cl)CC1` (stereo not shown) [331 (R11), 3-Chloro-benzo[b]thiophene-2-carboxylic acid[2-methoxy-5-(2-methyl-pyridin-4-yl)-benzyl]-(4-methylamino-cyclohexyl)-amide dihydrochloride], the EC50 in assay [1] (setting [4]) and in assay [2] (setting [5]) was less than 50 nM each time.
Consider `CNC(=O)c1cc(-c2ccc(OC)c(CN(C(=O)c3sc4c(F)ccc(F)c4c3Cl)C3CCC(NC)CC3)c2)ccn1` (stereo not shown) [356 (R21), 4-(3-{[(3-Chloro-4,7-difluoro-benzo[b]thiophene-2-carbonyl)-(4-methylamino-cyclohexyl)-amino]-methyl}-4-methoxy-phenyl)-pyridine-2-carboxylic acid methylamide dihydrochloride], for which the EC50 in assay [1] (setting [4]), in assay [2] (setting [5]) and in assay [3] was less than 50 nM throughout.
Turning to `CNC1CCC(N(Cc2cc(-c3ccc(OC)cc3)ccc2OC)C(=O)c2sc3ccccc3c2Cl)CC1` (stereo not shown) [Compound 305, 3-Chloro-benzo[b]thiophene-2-carboxylic acid (4,4′-dimethoxy-biphenyl-3-ylmethyl)-(4-methylamino-cyclohexyl)-amide hydrochloride], the concentration for a half-maximal effect (EC50) in assay [1] (setting [4]) was less than 50 nM; in assay [2] (setting [5]) it was 250 to 1000 nM; in assay [3], less than 50 nM.
Take `CCOc1ccc(-c2ccc(C(C)=O)cc2)cc1CN(C(=O)c1sc2ccccc2c1Cl)C1CCC(NC)CC1` (stereo not shown) [Compound 311, 3-Chloro-benzo[b]thiophene-2-carboxylic acid (4′-acetyl-4-ethoxy-biphenyl-3-ylmethyl)-(4-methylamino-cyclohexyl)-amide hydrochloride]: the EC50 was less than 50 nM in assay [1] (setting [4]), 50 to 250 nM in assay [2] (setting [5]) and less than 50 nM in assay [3].
For `CNC1CCC(N(Cc2cc(-c3cncnc3)ccc2OC)C(=O)c2sc3ccccc3c2Cl)CC1` (stereo not shown) [Compound 324 (R20), 3-Chloro-benzo[b]thiophene-2-carboxylic acid (2-methoxy-5-pyrimidin-5-yl-benzyl)-(4-methylamino-cyclohexyl)-amide dihydrochloride], the EC50 in assay [1] (setting [4]) was 50 to 250 nM; in assay [2] (setting [5]), 50 to 250 nM; in assay [3] it was less than 50 nM.
Turning to `CCOc1ccc(-c2cnc(N)nc2)cc1CN(C(=O)c1sc2ccccc2c1Cl)[C@H]1CC[C@H](NC)CC1` [Compound 325, 3-Chloro-benzo[b]thiophene-2-carboxylic acid[5-(2-amino-pyrimidin-5-yl)-2-ethoxy-benzyl]-(4-methylamino-cyclohexyl)-amide dihydrochloride], the EC50 is 250 to 1000 nM in assay [1] (setting [4]), 50 to 250 nM in assay [2] (setting [5]) and less than 50 nM in assay [3].
Take `CCOc1ccc(-c2cncnc2)cc1CN(C(=O)c1sc2ccccc2c1Cl)C1CCC(NC)CC1` (stereo not shown) [Compound 326, 3-Chloro-benzo[b]thiophene-2-carboxylic acid (2-ethoxy-5-pyrimidin-5-yl-benzyl)-(4-methylamino-cyclohexyl)-amide dihydrochloride]: the results for the EC50 in assay [1] (setting [4]), in assay [2] (setting [5]) and in assay [3] were 50 to 250 nM, 50 to 250 nM and less than 50 nM, respectively.
On to `CCOc1ccc(-c2cccc(C#N)c2)cc1CN(C(=O)c1sc2ccccc2c1Cl)C1CCC(NC)CC1` (stereo not shown) [Compound 328, 3-Chloro-benzo[b]thiophene-2-carboxylic acid (3′-cyano-4-ethoxy-biphenyl-3-ylmethyl)-(4-methylamino-cyclohexyl)-amide hydrochloride], for which the EC50 is less than 50 nM in assay [1] (setting [4]), 50 to 250 nM in assay [2] (setting [5]) and less than 50 nM in assay [3].
Regarding `CNC1CCC(N(Cc2cc(-c3cnccn3)ccc2OC)C(=O)c2sc3ccccc3c2Cl)CC1` (stereo not shown) [Compound 330 (R22), 3-Chloro-benzo[b]thiophene-2-carboxylic acid (2-methoxy-5-pyrazin-2-yl-benzyl)-(4-methylamino-cyclohexyl)-amide bis(trifluoroacetate)], the EC50 in assay [1] (setting [4]) was 50 to 250 nM; in assay [2] (setting [5]), 50 to 250 nM; in assay [3], less than 50 nM.
Take `CNC1CCC(N(Cc2cc(-c3cccc(C#N)c3)ccc2OC)C(=O)c2sc3c(F)ccc(F)c3c2Cl)CC1` (stereo not shown) [Compound 337, 3-Chloro-4,7-difluoro-benzo[b]thiophene-2-carboxylic acid (3′-cyano-4-methoxy-biphenyl-3-ylmethyl)-(4-methylamino-cyclohexyl)-amide hydrochloride]: the EC50 in assay [1] (setting [4]) and in assay [2] (setting [5]) was less than 50 nM each time.
For the compound `CNC1CCC(N(Cc2cc(-c3ccncc3)ccc2OC)C(=O)c2sc3ccccc3c2Cl)CC1` (stereo not shown) [Compound 339 (R12), 3-Chloro-benzo[b]thiophene-2-carboxylic acid (2-methoxy-5-pyridin-4-yl-benzyl)-(4-methylamino-cyclohexyl)-amide dihydrochloride], the EC50 in assay [1] (setting [4]) and in assay [2] (setting [5]) was less than 50 nM in each case.
Consider `CNC1CCC(N(Cc2cc(-c3ccc(CCl)cc3)ccc2OC)C(=O)c2sc3ccccc3c2Cl)CC1` (stereo not shown) [Compound 340, 3-Chloro-benzo[b]thiophene-2-carboxylic acid (4′-chloromethyl-4-methoxy-biphenyl-3-ylmethyl)-(4-methylamino-cyclohexyl)-amide hydrochloride], for which the EC50 in assay [1] (setting [4]), in assay [2] (setting [5]) and in assay [3] was less than 50 nM in each case.
On to `CCOc1ccc(-c2ccc(C(=O)C(F)(F)F)cc2)cc1CN(C(=O)c1sc2c(F)ccc(C)c2c1Cl)[C@H]1CC[C@@H](NC)CC1` [Compound 341, 3-Chloro-4,7-difluoro-benzo[b]thiophene-2-carboxylic acid[4-ethoxy-4′-(2,2,2-trifluoro-acetyl)-biphenyl-3-ylmethyl]-(4-methylamino-cyclohexyl)-amide trifluoroacetate], for which the EC50 is less than 50 nM in assay [1] (setting [4]) and 50 to 250 nM in assay [2] (setting [5]).
The matching figures for `CNC1CCC(N(Cc2cc(-c3ccc(C#N)cc3)ccc2OC)C(=O)c2sc3c(F)ccc(F)c3c2Cl)CC1` (stereo not shown) [Compound 351, 3-Chloro-4,7-difluoro-benzo[b]thiophene-2-carboxylic acid (4′-cyano-4-methoxy-biphenyl-3-ylmethyl)-(4-methylamino-cyclohexyl)-amide hydrochloride]: less than 50 nM and less than 50 nM.
With `CNC1CCC(N(Cc2cc(-c3cc(C)nc(C)c3)ccc2OC)C(=O)c2sc3ccccc3c2Cl)CC1` (stereo not shown) [Compound R1, 3-Chloro-benzo[b]thiophene-2-carboxylic acid[5-(2,6-dimethyl-pyridin-4-yl)-2-methoxy-benzyl]-(4-methylamino-cyclohexyl)-amide dihydrochloride], the EC50 is less than 50 nM in assay [1] (setting [4]) and 50 to 250 nM in assay [2] (setting [5]).
On to `CCOc1ccc(-c2ccc(C#N)cc2)cc1CN(C(=O)c1sc2ccccc2c1Cl)C1CCC(NC)CC1` (stereo not shown) [Compound R2, 3-Chloro-benzo[b]thiophene-2-carboxylic acid (4′-cyano-4-ethoxy-biphenyl-3-ylmethyl)-(4-methylamino-cyclohexyl)-amide hydrochloride], for which the EC50 in assay [1] (setting [4]) and in assay [2] (setting [5]) was 50 to 250 nM in each case.
As for `CCOc1ccc(-c2ccc(C)nc2)cc1CN(C(=O)c1sc2ccccc2c1Cl)C1CCC(NC)CC1` (stereo not shown) [Compound R4, 3-Chloro-benzo[b]thiophene-2-carboxylic acid[2-ethoxy-5-(6-methyl-pyridin-3-yl)-benzyl]-(4-methylamino-cyclohexyl)-amide dihydrochloride], the EC50 in assay [1] (setting [4]) and in assay [2] (setting [5]) was 50 to 250 nM throughout.
For the compound `CNC1CCC(N(Cc2cc(-c3ccnc(C(=O)O)c3)ccc2OC)C(=O)c2sc3c(F)ccc(F)c3c2Cl)CC1` (stereo not shown) [Compound R6, 4-(3-{[(3-Chloro-4,7-difluoro-benzo[b]thiophene-2-carbonyl)-(4-methylamino-cyclohexyl)-amino]-methyl}-4-methoxy-phenyl)-pyridine-2-carboxylic acid bis(trifluoroacetate)], the EC50 in assay [1] (setting [4]) and in assay [2] (setting [5]) was 50 to 250 nM in each case.
On to `CNC1CCC(N(Cc2cc(-c3ccc(S(C)(=O)=O)cc3)ccc2OC)C(=O)c2sc3ccccc3c2Cl)CC1` (stereo not shown) [Compound R7, 3-Chloro-benzo[b]thiophene-2-carboxylic acid (4′-methanesulfonyl-4-methoxy-biphenyl-3-ylmethyl)-(4-methylamino-cyclohexyl)-amide hydrochloride], for which the EC50 in assay [1] (Mus musculus, Leydig) is less than 50 nM; in assay [2] (Homo sapiens), less than 50 nM.
For `CN[C@H]1CC[C@@H](N(Cc2cc(-c3ccc(C(C)=O)cc3)ccc2OC)C(=O)C2=C(Cl)c3c(F)ccc(F)c3C2)CC1` [Compound R8, 3-Chloro-4,7-difluoro-benzo[b]thiophene-2-carboxylic acid(4′-carbamoyl-4-methoxy-biphenyl-3-ylmethyl)-(4-methylamino-cyclohexyl)-amide hydrochloride], the EC50 in assay [1] (setting [4]) and in assay [2] (setting [5]) was less than 50 nM each time.
